Test results reported in US20230085362A1, “PYRIMIDINE COMPOUNDS AND USE THEREOF” (National Health Research Institutes, priority 2021, published 2023).

What was measured:
[1] = system: Primary DRG cells; experiment: Neurite outgrowth assay (group B), oxaliplatin-induced neurotoxicity; assay type: cell-based, C57BL/6 J mice; details: for Neurite outgrowth (%): DRG cells, 1 µM compound 24 h then 100 µM oxaliplatin 48 h, % of untreated control; for Neurite outgrowth (%) A-B: difference between compound 1 µM + oxaliplatin 100 µM and oxaliplatin 100 µM alone; for neuroprotection against oxaliplatin-induced neurotoxicity: 1 µM compound, 100 µM oxaliplatin
Experimental: (§1) Cell culture. For primary culture, dorsal root ganglia (“DRG”) were removed from 7-weeks-old C57BL/6 J mice and digested with 0.1% collagenase (Sigma-Aldrich, St. Louis, MO) for 1 hour, followed by 0.25% trypsin treatment for 25 minutes. The dissociated neuron cultures were plated at a density of 2.5×10^4 cells per well in a 96 well optics plates (CLS3614; Sigma-Aldrich) precoated with 1 mg/mL poly-D-lysine (A-003-M; Sigma-Aldrich) for 3 hours. Primary DRG cells were grown in DMEM-F12 (11320033; Gibco®, ThermoFisher Scientific, Waltham, MA) supplemented with 10% fetal bovine serum (FBS, 26140079; Gibco®, ThermoFisher). These cells were maintained at 37° C. in an environment containing 5% CO2.
(§2) Neurite outgrowth assay (group A). Primary DRG cells were incubated with one of the Example 2 compounds at 1 µM for 24 hours, and then treated with 0.05 µM paclitaxel for another 24 hours. After the paclitaxel treatment, the primary DRG cells were washed by PBS and then fixed with 4% paraformaldehyde (PFA, P6148; Sigma-Aldrich) for 15 minutes. The DRG cells thus fixed were permeabilized by 0.05% Triton X-100 in PBS for 20 minutes and blocked with 3% bovine serum albumin (BSA; Sigma-Aldrich, USA) at room temperature for 1 hour. Subsequently, DRG cells were stained with rabbit anti-β III tubulin (1:600; Cell Signaling, USA) and mouse anti-NeuN monoclonal antibody (1:400; Millipore, USA) overnight at 4° C. The samples were then washed by PBS and reacted with secondary antibodies (Alexa-488 and Alexa-594 1:600; Invitrogen, CA) at room temperature for 1 hour. For image acquisition and analysis of DRG neurite outgrowth, images of stained cells were automatically acquired using 10X objective by Image Xpress Micro wide field fluorescent microscope (Molecular Devices, USA). A control was obtained following the same procedure except that the DRG cells were not treated with a compound or paclitaxel. Neurite outgrowth was measured as a percentage of outgrowth as compared to the control.
Neurite outgrowth assay (group B). Primary DRG cells were incubated with compounds 17, 47, 97, 98, 101, 104 at 1 µM for 24 hours, and then treated with 100 µM oxaliplatin for another 48 hours. The treatment was obtained following the same procedure as group A except that the DRG cells were treated with a oxaliplatin. Neurite outgrowth was measured as a percentage of outgrowth as compared to the control.

[2] = system: Primary DRG cells; experiment: Neurite outgrowth assay (group A), paclitaxel-induced neurotoxicity; assay type: cell-based, C57BL/6 J mice; details: for neuroprotection against paclitaxel-induced neurotoxicity: 1 µM compound, 0.05 µM paclitaxel; for activity at 1 µM: Mus musculus, DRG cells, 1 µM compound 24 h then 0.05 µM paclitaxel 24 h, % of untreated control, read-out: Neurite outgrowth (%); for Neurite outgrowth (%) A-B (extent of protection): difference between compound 1 µM + paclitaxel 0.05 µM and paclitaxel 0.05 µM alone
Experimental: Compounds of this invention were evaluated using the neurite outgrowth assay as described in Chen et al., Scientific Reports, 7, 45366, DOI: 10.1038/srep45366 (2017).
as §1, §2
The difference between A and B indicates an extent of protection provided by the compound.

[3] = system: paclitaxel-induced neuropathy; details: 5 mg/kg i.p. one hour before paclitaxel 4.5 mg/kg i.p., days 0, 2, 4, 6
Experimental: Compound 47 was used in an in vivo mouse behavioral study for treating paclitaxel-induced neuropathy following a procedure described in Chen et al., Scientific Reports, 7, 45366, DOI: 10.1038/srep45366 (2017).
After housing adaptions, 7-weeks-old C57BL/6J female mice (weight range: 18-20 g) were treated as follows. Paclitaxel (4.5 mg/kg, Bristol-Myers Squibb, New York, New York), vehicle (saline), or Compound 47 (5, 10 or 20 mg/kg) was injected intraperitoneally on four alternative days (days 0, 2, 4, and 6). Two behavior tests were performed: (1) mechanical hyperalgesia was evaluated using a von Frey filament (Part #2390, IITC Inc., CA) and (2) thermal sensitivity was studied using a tail immersion assay (water temperature: 48-49° C.). See Chen et al., Mol. Cancer. Ther. 14, 2206-14 (2015). The baseline measurement of each behavior test was established prior to treatments. Five sessions were measured weekly.
The neuroprotective effects of Compound 47 in a mouse model was measured following a protocol with predetermined drug administration and behavioral tests. The basal levels of each behavioral assay were obtained prior to the treatment. […]
A von Frey filament test was performed to detect allodynia. […] Thermal sensation was assessed using a tail immersion test by checking tail withdrawal latency. […]

CC(C)NCCCn1cc(CNc2nc(NC3CCN(Cc4ccccc4)CC3)cc(N3CCOCC3)n2)nn1 [Compound 17] was tested, and the “Neurite outgrowth (%)” value [1] was 26%, the “Neurite outgrowth (%) A-B” value [1] was -3% and the “neuroprotection against paclitaxel-induced neurotoxicity” value [2] was “neuroprotection was provided”. For the same compound, the activity at 1 µM [2] was 50% and the “Neurite outgrowth (%) A-B (extent of protection)” value [2] was 3%.

In the case of O=P(O)(O)CCN1CCC(Nc2cc(N3CCOCC3)nc(NCc3cn(CCCO)nn3)n2)CC1 [Compound 47], the “improvement of neurite outgrowth” value ([1]; 1 µM compound vs 100 µM oxaliplatin treated cells) is reported as “more than 7%”, the “neuroprotection against oxaliplatin-induced neurotoxicity” value [1] is reported as “neuroprotection was provided” and the “Neurite outgrowth (%)” value [1] is reported as 47%. For the same compound, the “Neurite outgrowth (%) A-B” value [1] was 7%, the “improvement of neurite outgrowth” value ([2]; 1 µM compound vs 0.05 µM paclitaxel treated cells) was “more than 18%” and the “neuroprotection against paclitaxel-induced neurotoxicity” value [2] was “neuroprotection was provided”. For the same compound, the activity at 1 µM [2] was 65%, the “Neurite outgrowth (%) A-B (extent of protection)” value [2] was 18% and the “pain threshold (von Frey)” value [3] was “provided protection”.

CCn1nnnc1CNc1nc(N2CCOCC2)cc(N2CCOCC2)n1 [Compound 97] was tested, and the “neuroprotection against oxaliplatin-induced neurotoxicity” value [1] was “neuroprotection was provided”, the “Neurite outgrowth (%)” value [1] was 31% and the “Neurite outgrowth (%) A-B” value [1] was 2%. The “neuroprotection against paclitaxel-induced neurotoxicity” value [2] was “neuroprotection was provided”, the activity at 1 µM [2] was 45% and the “Neurite outgrowth (%) A-B (extent of protection)” value [2] was 5%.

For CCn1nnc(CNc2nc(N3CCOCC3)cc(N3CCOCC3)n2)n1 [Compound 98], the “Neurite outgrowth (%)” value [1] was 26%, the “Neurite outgrowth (%) A-B” value [1] was -3% and the “neuroprotection against paclitaxel-induced neurotoxicity” value [2] was “neuroprotection was provided”. The activity at 1 µM [2] was 45% and the “Neurite outgrowth (%) A-B (extent of protection)” value [2] was 5%.

With CCn1nnc(CNc2nc(NC3CCN(CCC(=O)O)CC3)cc(N3CCOCC3)n2)n1 [Compound 101] the “neuroprotection against oxaliplatin-induced neurotoxicity” value [1] was “neuroprotection was provided”, the “Neurite outgrowth (%)” value [1] was 31% and the “Neurite outgrowth (%) A-B” value [1] was 2%. For the same compound, the “neuroprotection against paclitaxel-induced neurotoxicity” value [2] was “neuroprotection was provided”, the activity at 1 µM [2] was 53% and the “Neurite outgrowth (%) A-B (extent of protection)” value [2] was 6%.

For OCCCc1cc(CNc2nc(NC3CCNCC3)cc(N3CCOCC3)n2)no1 [Compound 104], the “neuroprotection against oxaliplatin-induced neurotoxicity” value [1] was “neuroprotection was provided”, the “Neurite outgrowth (%)” value [1] was 34% and the “Neurite outgrowth (%) A-B” value [1] was 5%. For the same compound, the “neuroprotection against paclitaxel-induced neurotoxicity” value [2] was “neuroprotection was provided”, the activity at 1 µM [2] was 45% and the “Neurite outgrowth (%) A-B (extent of protection)” value [2] was 5%.
